Read-outs that look alike come from different tables or passages of the source.
Columns and labels:
[1] = Solubility of insulin, FDKP and insulin plus FDKP between pH 6.0 and pH 7.4 (Example 9); assay type: physicochemical
Method: A standard solution of insulin (using recombinant human insulin) was made in 0.05N aqueous HCl. An aliquot (1 mg) of the solution was transferred into 4 different Eppendorf tubes and 9 mg of solid Na2-FDKP was added into each tube. A milky suspension formed immediately. The pH was adjusted to the values between pH 6.0 and pH 7.4 using 0.1N aqueous NaOH. Samples of insulin alone were compared to FDKP alone and to the solution of insulin and FDKP. The insulin alone samples were all insoluble. […] All samples containing 9 mg/ml FDKP and 1 mg/ml insulin were soluble at all pH values.

FDKP micelle formation = assay type: physicochemical; settings: FIG. 3
Method: FIG. 3 is a graph depicting the concentration of FDKP for forming micelles in phosphate buffer at pH 7.4 above 0.03 mg/ml.
Without being restricted to any one mechanism for creating the ultra-fast insulin formulations, a diketopiperazine, for example FDKP, has effects as an absorption enhancer and permeation enhancer, a metal chelator, a surfactant, a bolaamphiphile, and an aggregation inhibitor, and promotes enhanced absorption through a combination of these effects, including enhancing the amount of monomer insulin in solution upon injection. For example, the fumaric acid charges on the FDKP may serve to charge-mask insulin positive charges, reducing the overall charge on the insulin, and making it more likely to be absorbed, especially when formulations have a pH of about 6.0 to about 7.2, as described herein.

diabetic minipigs = experiment: Glucose response after subcutaneous injection in diabetic minipigs (Example 8); assay type: in vivo, Yucatan minipigs
Method: Recombinant human insulin were prepared in ultra-fast acting subcutaneous injectable formulations in aqueous solutions containing FDKP at pH 6.5 and 7.4, as summarized in Table 6. All formulation preparation was conducted in a laminar flow hood and the final solutions were filtered through 0.2 micron filters. Both formulations were injected into the subcutaneous tissue of diabetic minipigs (Yucatan minipigs rendered diabetic by treatment with alloxan).
The glucose response from the pH 6.5 formulation compared to a subcutaneous injection of standard lispro insulin is shown in FIG. 1. […] Time to 50% glucose reduction from the formulation is 30 minutes, while that from standard lispro is 50 minutes.
The glucose response from the […] formulation compared to a subcutaneous injection of the ultra-fast acting pH 6.5 formulation, both containing FDKP, are shown in FIG. 2. […] The strong pH dependency of the absorption rate was not anticipated. While not wanting to be held to a specific mechanism for the rapid absorption, the lower pH solution appears to cause there to be less charge on the FDKP, which would make it more hydrophobic, and therefore more likely to bind tightly to the insulin molecule, thereby reducing the overall charge on insulin, causing there to be more monomers in solution, and enhancing the absorption by several mechanisms.

Compound | solubility [1] | solubility ([1]; pH 6) | solubility ([1]; pH 6.5) | solubility ([1]; pH 7) | solubility ([1]; pH 7.4) | concentration for forming micelles (FDKP micelle formation) [µM] | solubility ([1]; below pH 7.0) | solubility ([1]; pH 6.0) | solubility ([1]; pH 7.0, listed as FDKP (9 mg/mL)) | solubility ([1]; pH 7.0, listed as FDKP alone) | solubility ([1]; pH 7.4, listed as FDKP (9 mg/mL)) | solubility ([1]; pH 7.4, listed as FDKP alone) | Time to 50% glucose reduction (diabetic minipigs) [min]
Insulin (1 mg/mL): Recombinant human insulin, 1 mg/mL, without FDKP [reference compound] | insoluble | insoluble | Insoluble | Insoluble | Insoluble | – | – | – | – | – | – | – | –
O=C(O)/C=C/C(=O)NCCCCC1NC(=O)C(CCCCNC(=O)/C=C/C(=O)O)NC1=O (centres unmarked) [FDKP, 2,5-diketo-3,6-di(4-fumarylaminobutyl)piperazine] | – | – | Insoluble | – | – | ≥ 62 | insoluble | Insoluble | Partial | partially soluble | Soluble | soluble | –
insulin lispro [standard lispro] | – | – | – | – | – | – | – | – | – | – | – | – | 50

Reference: patent US20220354782A1, “SUBCUTANEOUSLY INJECTABLE INSULIN AND GLUCAGON FORMULATIONS AND METHODS OF ADMINISTRATION” (CASS PHARMACEUTICALS, INC., priority 2019, published 2022)
